{"source": "patent US8476198B2", "about": "“Fungicidal composition” (Valent BioSciences Corporation, priority 2009, dated 2013)", "key": {"[1]": {"tested_on": "Fusarium solani f. sp. pisi", "assay": "Seed treatment effect against Fusarium solani f. sp. pisi (Fusarium root rot of pea)", "assay_type": "in vivo, Fusarium solani f. sp. pisi on pea", "details": "16 days", "description": "Seed treatment effect against Fusarium solani f. sp. pisi (Fusarium root rot of pea)\nPESA and metconazole were diluted with DMSO respectively and mixed with each other to obtain the desired material mixture. Then, this suspension was applied to pea seeds. The PESA solution and the metconazole solution were applied to seeds respectively for control, and DMSO for untreated control. The seeds were dried and planted in soil that was inoculated with Fusarium solani f. sp. pisi. After growing at 20-24° C. in a greenhouse, for 16 days, symptoms were investigated and the frequency of disease and % control were calculated. The fungicide interactions in the combinations are calculated according to […] formula: E=X+Y−(X*Y)/100 • X=% action by active ingredient A using P ppm of active ingredient • Y=% action by active ingredient B using Q ppm of active ingredient • E=expected % action by active ingredients A and B using P and Q ppm of active ingredients If the action actually observed (O) is greater than the expected action (E), than the action of the combination is super-additive, i.e. there is a synergistic effect. In mathematical terms, synergism corresponds to a value of more than 100 for the ratio of O/E, said ratio O/E of less than 100 signals a loss of activity compared to the expected activity. Synergy Effect=(Observed/Expected)*100"}, "cotton seedlings": {"tested_on": "cotton seedlings", "assay": "Pouch assay: main root length of cotton seedlings from treated seeds", "assay_type": "in vivo", "details": "for Root Length (cm): 6 day-old cotton seedlings", "description": "Seeds of cotton were treated with PESA salt and/or triadimenol (BAYTAN® 30 Flowable Fungicide, Bayer Crop Science, RTP, NC USA). These were assayed in the pouch assay as described above."}}, "note": "Structures can show the parent of a compound that is named as a salt."}
{"smiles": "CC1(C)CCC(Cc2ccc(Cl)cc2)C1(O)Cn1cncn1", "note": "(stereo not drawn) [Metconazole, metconazole, reference compound]", "values": [{"measurement": "Observed action (% control)", "setting": "[1]; metconazole 0.2 gai/100 kg seed", "value": 55, "unit": "% control"}, {"measurement": "Observed action (% control)", "setting": "[1]; metconazole 1 gai/100 kg seed", "value": 73, "unit": "% control"}]}
{"smiles": "O=C(O)CCC(=O)NCCc1ccccc1", "note": "[PESA salt]", "values": [{"measurement": "Root Length (cm)", "setting": "cotton seedlings; 25 g ai PESA salt/100 lbs. of seed, triadimenol 0", "value": 14.8, "unit": "cm"}, {"measurement": "Root Length (cm)", "setting": "cotton seedlings; 50 g ai PESA salt/100 lbs. of seed, triadimenol 0", "value": 14.3, "unit": "cm"}, {"measurement": "Effect of adding PESA salt on the fungicide's negative effect on cotton root growth", "setting": "cotton seedlings; cotton seed treatment, conclusion in words from Table 2", "value": "protects or safens cotton from the negative effects of the fungicide on root growth"}]}
{"smiles": "O=C(O)CCC(=O)NCCc1ccccc1", "note": "[PESA, N-(2-phenylethyl)succinamic acid]", "values": [{"measurement": "Observed action (% control)", "setting": "[1]; PESA 2 gai/100 kg seed, inoculated soil", "value": 0, "unit": "% control"}, {"measurement": "Observed action (% control)", "setting": "[1]; PESA 10 gai/100 kg seed, inoculated soil", "value": 9, "unit": "% control"}]}
{"smiles": "CC(C)(C)C(O)C(Oc1ccc(Cl)cc1)n1cncn1", "note": "(stereo not drawn) [Triadimenol, triadimenol, reference compound]", "values": [{"measurement": "Root Length (cm)", "setting": "cotton seedlings; triadimenol 28.2 g ai/100 lbs. of seed, 0 g ai PESA salt", "value": 12.8, "unit": "cm"}, {"measurement": "Root Length (cm)", "setting": "cotton seedlings; triadimenol 56.4 g ai/100 lbs. of seed, 0 g ai PESA salt", "value": 12.3, "unit": "cm"}]}
